Source: patent US20250296971A1, “GASTRIC INHIBITORY PEPTIDE RECEPTOR LIGANDS” (priority 2021, published 2025)
Like-named read-outs stand apart in the source and are kept apart here. *1 amine or outer side, *2 acyl side, *3 side chain or, on linkers, in order; H or OH if unused. Where a SMILES comes first, the peptide text is derived from it. Bridges are numbered along the chain shown (N, C = ends). [ ]: non-standard residue; d: D form. The star is where a group is joined. X13 = O=C(CN1CCN2CCN3CCN(CC1)CC(=O)[O][Lu]([O]C(=O)C2)[O]C(=O)C3)NCCCOCCOCCOCCCN*; DOTA(In) = O=C1CN2CCN3CCN(CC(=O)*)CCN(CC2)CC(=O)[O][In]([O]1)[O]C(=O)C3; Trp(5-Cl) = N[C@@H](Cc1c[nH]c2ccc(Cl)cc12)C(=O)O; X6 = c1cc(CSCCN[*:2])nc(C[*:1])c1; X7 = c1cc(CSCCN[*:2])cc(C[*:1])c1; Cya = N[C@@H](CS(=O)(=O)O)C(=O)O; Hyp = O=C(O)[C@@H]1C[C@@H](O)CN1; X1 = O=C(CN1CCC(N[*:1])CC1)[*:2]; Suc = O=C(CCC(=O)[*:2])[*:1]; Api = NC1(C(=O)O)CCNCC1; Thp = NC1(C(=O)O)CCOCC1; Aib = CC(C)(N)C(=O)O

Assays:
[1] = target: T1, GIPR (CHO-K1-hGIPR cells) (Homo sapiens, UniProt P48546); experiment: FACS binding assay; details: competition with 20 nM GIP-057, 4° C., 1 hour
T1 construct: host or cells: CHO-K1
T1 sequence (P48546 22-466): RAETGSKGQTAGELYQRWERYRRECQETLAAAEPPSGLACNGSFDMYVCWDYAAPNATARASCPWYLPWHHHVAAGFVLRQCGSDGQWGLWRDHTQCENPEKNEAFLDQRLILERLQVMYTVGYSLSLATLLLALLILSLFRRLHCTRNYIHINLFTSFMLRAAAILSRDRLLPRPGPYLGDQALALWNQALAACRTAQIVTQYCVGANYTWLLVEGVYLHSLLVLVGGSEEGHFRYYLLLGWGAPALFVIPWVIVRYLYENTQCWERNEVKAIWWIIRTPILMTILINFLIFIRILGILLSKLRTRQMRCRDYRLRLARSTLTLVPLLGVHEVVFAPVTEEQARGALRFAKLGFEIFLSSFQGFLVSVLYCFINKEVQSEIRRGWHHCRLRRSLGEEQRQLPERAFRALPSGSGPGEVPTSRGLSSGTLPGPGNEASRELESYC
In short: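 Steps: detach CHO-K1-hGIPR cells (Accutase); wash in PBS/1% FCS; adjust to 500.000 cells per mL; wash ice-cold; incubate APC-streptavidin 1 μg/mL, 30 min on ice; wash twice; acquire on flow cytometer; fit MFI-concentration data with a four-parameter logistic model.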

[2] = target: T2, human GIP receptor (bioGIPR) (Homo sapiens, UniProt P48546); experiment: Surface plasmon resonance (SPR) based binding assay
T2 construct: Biotinylate extracellular of the human GIP receptor (bioGIPR, Proteros biostructures GmbH, lot #02/2b); purchased Proteros biostructures GmbH lot #02/2b
T2 sequence (P48546 22-138 limits assumed): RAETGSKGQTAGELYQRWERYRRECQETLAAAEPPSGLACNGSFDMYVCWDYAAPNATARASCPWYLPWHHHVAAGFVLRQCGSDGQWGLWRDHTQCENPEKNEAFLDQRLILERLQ
In short: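 Binding was measured at 25 °C by single-cycle kinetics against a reference flow cell, with blank-run and drift correction, after capturing biotinylated GIPR extracellular domain to ~3500 RU. Running buffer: HBST, 0.1% DMSO. A 1:1 Langmuir model gave kinetic rates, KD, t1/2 and pKD.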

[3] = read-out: pIC50 Category (converted)
[4] = SPR, Single Cycle Kinetic mode, 25° C., 1:1 Langmuir binding model, read-out: pKD Category (converted)

SMILES	IC50 [1, 3] [nM]	Kd [2, 4] [nM]	IC50 ([1]; pIC50 Category) [nM]	Kd [2] [nM]	t1/2 Category ([2]; SPR dissociation half-life, Single Cycle Kinetic mode, 25° C.)
CC[C@H](C)[C@@H]1NC(=O)[C@H](CC(C)C)NC(=O)C(C)(C)NC(=O)[C@@H](NC(=O)[C@@H](CC(C)C)NC(=O)[C@H](CCC(=O)O)NC(=O)[C@@H]2CCCN2C(=O)[C@H](Cc2c[nH]c3ccc(Cl)cc23)NC(=O)[C@H](Cc2c[nH]c3ccccc23)NC(=O)[C@H](CC(=O)O)NC(=O)CN2CCC(NC(=O)CN3CCN4CCN5CCN(CC3)CC(=O)[O][In]([O]C(=O)C4)[O]C(=O)C5)CC2)CSCc2cccc(c2)CSCCNC1=O [GIP-153, InDOTA-APAc-Asp-Trp-5Clw-Pro-Glu-leu-[Cys(3MeBn)-Aib-Leu-Ile-AET]] ({DOTA(In)}-[X1]DW[Trp(5-Cl)]PE[dL]C[Aib]LI; linker 8-C via X7)	< 10	< 1	–	–	–
CC[C@H](C)[C@@H]1NC(=O)[C@H](CC(C)C)NC(=O)C2(CCOCC2)NC(=O)[C@@H](NC(=O)[C@@H](CC(C)C)NC(=O)[C@H](CCC(=O)O)NC(=O)[C@@H]2C[C@@H](O)CN2C(=O)[C@H](Cc2c[nH]c3ccc(Cl)cc23)NC(=O)[C@H](Cc2c[nH]c3ccccc23)NC(=O)[C@H](CC(=O)O)NC(=O)CN2CCC(NC(=O)CN3CCN4CCN5CCN(CC3)CC(=O)[O][In]([O]C(=O)C4)[O]C(=O)C5)CC2)CSCc2cccc(n2)CSCCNC1=O [GIP-155, InDOTA-APAc-Asp-Trp-5Clw-Hyp-Glu-leu-[Cys(2Lut)-Thp-Leu-Ile-AET]] ({DOTA(In)}-[X1]DW[Trp(5-Cl)][Hyp]E[dL]C[Thp]LI; linker 8-C via X6)	< 10	< 1	–	–	–
CC[C@H](C)[C@@H]1NC(=O)[C@H](CC(C)C)NC(=O)C(C)(C)NC(=O)[C@@H](NC(=O)[C@@H](CC(C)C)NC(=O)[C@H](CCC(=O)O)NC(=O)[C@@H]2CCCN2C(=O)[C@H](Cc2c[nH]c3ccc(Cl)cc23)NC(=O)[C@H](Cc2c[nH]c3ccccc23)NC(=O)[C@H](CC(=O)O)NC(=O)CCC(=O)NCCCOCCOCCOCCCNC(=O)CN2CCN3CCN4CCN(CC2)CC(=O)[O][Lu]([O]C(=O)C3)[O]C(=O)C4)CSCc2cccc(c2)CSCCNC1=O [GIP-167, LuDOTA-Ttds-Asp-Trp-5Clw-Pro-Glu-leu-[Cys(3MeBn)-Aib-Leu-Ile-AET]] ({X13-Suc}-DW[Trp(5-Cl)]PE[dL]C[Aib]LI; linker 7-C via X7)	–	–	< 10	< 1	A (t1/2 values>15 min)
CC[C@H](C)[C@@H]1NC(=O)[C@H](CC(C)C)NC(=O)C2(CCN(C(=O)CN3CCN4CCN5CCN(CC3)CC(=O)[O][In]([O]C(=O)C5)[O]C(=O)C4)CC2)NC(=O)[C@@H](NC(=O)[C@@H](CC(C)C)NC(=O)[C@H](CCC(=O)O)NC(=O)[C@@H]2C[C@@H](O)CN2C(=O)[C@H](Cc2c[nH]c3ccc(Cl)cc23)NC(=O)[C@H](Cc2c[nH]c3ccccc23)NC(=O)CCC(=O)O)CSCc2cccc(n2)CSCCNC1=O [GIP-169, HO-Succinyl-Trp-5Clw-Hyp-Glu-leu-[Cys(2Lut)-Apc(InDOTA)-Leu-Ile-AET]] (Suc-W[Trp(5-Cl)][Hyp]E[dL]C[Api](DOTA(In))LI; linker 6-C via X6)	–	< 1	< 10	–	–
CC[C@H](C)[C@@H]1NC(=O)[C@H](CC(C)C)NC(=O)C(C)(C)NC(=O)[C@@H](NC(=O)[C@@H](CC(C)C)NC(=O)[C@H](CCC(=O)O)NC(=O)[C@@H]2C[C@@H](O)CN2C(=O)[C@H](Cc2c[nH]c3ccc(Cl)cc23)NC(=O)[C@H](Cc2c[nH]c3ccccc23)NC(=O)[C@H](CS(=O)(=O)O)NC(C)=O)CSCc2cccc(n2)CSCCNC1=O [GIP-179, Ac-Cya-Trp-5Clw-Hyp-Glu-leu-[Cys(2Lut)-Aib-Leu-Ile-AET]] (Ac-[Cya]W[Trp(5-Cl)][Hyp]E[dL]C[Aib]LI; linker 7-C via X6)	< 10	< 1	–	–	–
